Laboratory results as given in US10266510B2, “Antimicrobial and cytotoxic compounds and methods for treating cancer, a bacterial infection, and/or a fungal infection” (King Abdulaziz University, priority 2017, dated 2019).

Assays:
Assay in all cases: Well diffusion agar method, inhibition zone
Format in all cases: cell-based
[1] = test system: Aspergillus flavus ATCC 16883
Source text: (§1) The ability to inhibit the growth of Gram-positive and Gram-negative bacteria, yeasts and filamentous fungi was observed using an overlay method (S. R. Connell, D. M. Tracz, K. H. Nierhaus, D. E. Taylor, Antimicrob. Agents Chemother. 47, 3675 (2003), incorporated herein by reference in its entirety).
(§2) The common pathogenic and food spoilage microorganisms were selected for their relevance in bakery products and other food: the gram-positive bacteria: Bacillus subtilits NRRL-B-4219, Staphylococcus aureus ATCC 6538, Enterococcus faecalis ATCC 19433; the gram negative bacteria: Escherichia coli ATCC 25922, Pseudomonas aeruginosa ATCC 9027, Proteus sp.; yeasts, such as Candida albicans ATCC 10231; and fungi: Aspergillus niger NRRL 2766 (equivalent to ATCC 16888), and Aspergillus flavus ATCC 16883. The bacteria were slanted on nutrient agar (Merck, Darmstadt, Germany), yeast was slanted and mentioned on Sabaroud's agar medium (Lab M., Bury, Lancashire, UK) and the fungi was slanted and mentioned on the potato Dextrose Agar medium (Lab M Limited, Bury, Lancashire, UK). Mueller-Hinton agar (Lab M., Bury, Lancashire, UK) following the manufacturer's instructions was used for the assay.
(§3) All compounds were dissolved in dimethyl sulfoxide (RFCL Limited, New Delhi, India) at 50 μg/mL concentration as shown in Table 4 in comparison with different standard antibiotics. Antibiotic discs of Streptomycin (S) (10 μg), Oxytetracycline (T) (30 μg), and Tetracyciline (TE) (30 μg) were used as positive controls for bacteria. Neomycin (N) (30 μg), was used for fungi.
(§4) The antibacterial screening was performed with the well diffusion agar method (S. T. Williams, M. Goodfellow, E. M. H. Wellington, J. C. Vickers, G. Alderson, P. H. A. Sneath, S. M. J. Sackins, A. M. Mortimer, J. Gen. Microbiol. 129, 1815(1983); and B. Bonev, J. Hooper, J. Parisot, J. Antimicrob. Chemother., 61, 1295(2008), each incorporated herein by reference in their entirety). The organisms were streaked in radial patterns on the agar plates. Plates were incubated under aerobic conditions at 37° C. and 28° C. for 24 h and 48 h for bacteria and fungi, respectively. All prepared solutions were treated under the same conditions under the same incubated plates. All tests were performed in triplicate. Plates were examined for evidence of antimicrobial activities, represented by a zone of inhibition of the microorganism's growth around the holes, and diameters of clear zones were expressed in millimeters (R. Cruickshank, J. P. Duguid, B. P. Marmion, R. H. A. Swain, The practice of medicinal microbiology. In Medical Microbiology, 12th ed.; Churchill Livingstone: Edinburgh, UK, Volume 11, pp. 196-202 (1975), incorporated herein by reference in its entirety).

Proteus sp. = test system: Proteus sp.
Source text: as §1, §2, §3, §4

[2] = test system: Staphylococcus aureus ATCC 6538
Source text: as §1, §2, §3, §4

[3] = test system: Pseudomonas aeruginosa ATCC 9027
Source text: as §1, §2, §3, §4

[4] = test system: Aspergillus niger NRRL 2766
Source text: as §1, §2, §3, §4

[5] = test system: Bacillus subtilits NRRL-B-4219
Source text: as §1, §2, §3, §4

[6] = test system: Escherichia coli ATCC 25922
Source text: as §1, §2, §3, §4

[7] = test system: Candida albicans ATCC 10231
Source text: as §1, §2, §3, §4

[8] = test system: Enterococcus faecalis ATCC 19433
Source text: as §1, §2, §3, §4

[H]/N=C(/N)N[C@H]1[C@H](O)[C@@H](O)[C@H](O[C@@H]2O[C@@H](C)[C@](O)(C=O)[C@H]2O[C@@H]2O[C@@H](CO)[C@H](O)[C@@H](O)[C@@H]2NC)[C@@H](N/C(N)=N\[H])[C@@H]1O (relative stereo) [S*, Streptomycin]
Inhibition zone, A. flavus ([1]; standard antibiotic disc 10 μg): 0 mm
Inhibition zone, Proteus sp. (Proteus sp.; standard antibiotic disc 10 μg): 0 mm
Inhibition zone, S. aureus ([2]; standard antibiotic disc 10 μg): 0 mm
Inhibition zone, P. aeruginosa ([3]; standard antibiotic disc 10 μg): 0 mm
Inhibition zone, A. niger ([4]; standard antibiotic disc 10 μg): 0 mm
Inhibition zone, B. subtilits ([5]; standard antibiotic disc 10 μg): 14 mm
Inhibition zone, E. coli ([6]; standard antibiotic disc 10 μg): 0 mm
Inhibition zone, C. albicans ([7]; standard antibiotic disc 10 μg): 12 mm
Inhibition zone, Ent. faecalis ([8]; standard antibiotic disc 10 μg): 0 mm

NC[C@@H]1O[C@H](O[C@H]2[C@@H](O)[C@H](O[C@@H]3[C@@H](O)[C@H](N)C[C@H](N)[C@H]3O[C@H]3O[C@H](CN)[C@@H](O)[C@H](O)[C@H]3N)O[C@@H]2CO)[C@H](N)[C@@H](O)[C@@H]1O [N*, Neomycin]
Inhibition zone, A. flavus ([1]; standard antibiotic disc 30 μg): 14 mm
Inhibition zone, Proteus sp. (Proteus sp.; standard antibiotic disc 30 μg): 0 mm
Inhibition zone, S. aureus ([2]; standard antibiotic disc 30 μg): 0 mm
Inhibition zone, P. aeruginosa ([3]; standard antibiotic disc 30 μg): 0 mm
Inhibition zone, A. niger ([4]; standard antibiotic disc 30 μg): 16 mm
Inhibition zone, B. subtilits ([5]; standard antibiotic disc 30 μg): 0 mm
Inhibition zone, E. coli ([6]; standard antibiotic disc 30 μg): 0 mm
Inhibition zone, C. albicans ([7]; standard antibiotic disc 30 μg): 0 mm
Inhibition zone, Ent. faecalis ([8]; standard antibiotic disc 30 μg): 0 mm

CN(C)[C@@H]1C(O)=C(C(N)=O)C(=O)[C@@]2(O)C(O)=C3C(=O)c4c(O)cccc4[C@@](C)(O)[C@H]3[C@H](O)[C@@H]12 [T*, Oxytetracycline]
Inhibition zone, A. flavus ([1]; standard antibiotic disc 30 μg): 0 mm
Inhibition zone, Proteus sp. (Proteus sp.; standard antibiotic disc 30 μg): 0 mm
Inhibition zone, S. aureus ([2]; standard antibiotic disc 30 μg): 0 mm
Inhibition zone, P. aeruginosa ([3]; standard antibiotic disc 30 μg): 0 mm
Inhibition zone, A. niger ([4]; standard antibiotic disc 30 μg): 0 mm
Inhibition zone, B. subtilits ([5]; standard antibiotic disc 30 μg): 30 mm
Inhibition zone, E. coli ([6]; standard antibiotic disc 30 μg): 0 mm
Inhibition zone, C. albicans ([7]; standard antibiotic disc 30 μg): 0 mm
Inhibition zone, Ent. faecalis ([8]; standard antibiotic disc 30 μg): 0 mm

CN(C)[C@@H]1C(O)=C(C(N)=O)C(=O)[C@@]2(O)C(O)=C3C(=O)c4c(O)cccc4[C@@](C)(O)[C@H]3C[C@@H]12 [TE*, Tetracyciline]
Inhibition zone, A. flavus ([1]; standard antibiotic disc 30 μg): 14 mm
Inhibition zone, Proteus sp. (Proteus sp.; standard antibiotic disc 30 μg): 0 mm
Inhibition zone, S. aureus ([2]; standard antibiotic disc 30 μg): 0 mm
Inhibition zone, P. aeruginosa ([3]; standard antibiotic disc 30 μg): 0 mm
Inhibition zone, A. niger ([4]; standard antibiotic disc 30 μg): 16 mm
Inhibition zone, B. subtilits ([5]; standard antibiotic disc 30 μg): 10 mm
Inhibition zone, E. coli ([6]; standard antibiotic disc 30 μg): 0 mm
Inhibition zone, C. albicans ([7]; standard antibiotic disc 30 μg): 0 mm
Inhibition zone, Ent. faecalis ([8]; standard antibiotic disc 30 μg): 0 mm
